Measurements published in patent EP0084597A1, “Triazole and imidazole derivatives and pharmaceutical preparations containing them” (BAYER AG, priority 1981, dated 1983).
≈ marks a conversion by molar mass, not a printed value.

Assays:
Trichophyton mentagr. = assay: Antimycotic in-vitro activity, serial dilution test (MIC); assay type: cell-based, Trichophyton mentagrophytes; details: Sabouraud medium, 20°C, 96 hours, inoculum 5 x 10^4 germs/ml; for MIC: Trichophyton, read-out: MHK-Werte in γ/ml Nährmedium, Trichophyton mentagr.
Method: (§1) Die in-vitro-Prüfungen wurden im Reihenverdünnungstest mit Keiminokula von durchschnittlich 5 x 10^4 Keimen/ml Substrat durchgeführt. Als Nährmedium dienten • a) für Dermatophyten und Schimmelpilze: Sabourand's milieu d'epreuve • b) für Hefen: Fleischextrakt-Traubenzucker-Bouillon.
(§2) Die Bebrütungstemperatur betrug 20°C, die Bebrütungsdauer lag bei 24 bis 96 Stunden bei Hefen und 96 Stunden bei Dermatophyten und Schimmelpilzen.

[1] = system: Trichophyton mentagrophytes; assay: Antimycotic in-vivo activity (local) in experimental guinea pig trichophytosis; parameters: species or system Meerschweinchen; key to Wirkung: +++++: sehr gute Wirkung = keine Infektionszeichen am 12.-15.Tag p.i.; ++++: gute Wirkung = geringe Rötung, vereinzelt Schuppen; +++: Wirkung = Rötung, Schuppung, ohne Haarausfall; ++: schwache Wirkung = Rötung, Schuppung, Haarausfall; +: Spur Wirkung = flächiger Haarausfall, entzündliche Hautreaktion; details: for Wirkungen: local treatment; for Wirkung: local treatment 1x daily from day 3 p.i. with a 15% solution in dimethylsulfoxide : glycerol = 1 : 4, signs of infection day 12-15 p.i.
Aspergillus fumig. = assay: Antimycotic in-vitro activity, serial dilution test (MIC); assay type: cell-based, Aspergillus fumigatus; details: Sabouraud medium, 20°C, inoculum 5 x 10^4 germs/ml; for MIC: Aspergillus, 96 h, read-out: MHK-Werte in γ/ml Nährmedium, Aspergillus fumig.
Method: as §1, §2

Microsporum canis = assay: as above; assay type: cell-based; details: Sabouraud medium, 20°C, inoculum 5 x 10^4 germs/ml; for MHK-Werte in γ/ml Nährmedium, Microsporum canis: 96 hours; for MIC: Microsporum canis, 96 h, read-out: MHK-Werte in γ/ml Nährmedium, Microsporum canis
Method: as §1, §2

Torulopsis glabrata = assay: as above; assay type: cell-based; details: meat extract-glucose broth, 20°C, 24 to 96 hours, inoculum 5 x 10^4 germs/ml; for MIC: Nakaseomyces glabratus, read-out: MHK-Werte in γ/ml Nährmedium, Torulopsis glabrata
Method: as §1, §2

Candida albicans = assay: as above; assay type: cell-based; details: meat extract-glucose broth, 20°C, 24 to 96 hours, inoculum 5 x 10^4 germs/ml; for MIC: Candida albicans, read-out: MHK-Werte in γ/ml Nährmedium, Candida albicans
Method: as §1, §2

[2] = system: Dermatophyten und Schimmelpilze, Hefen; assay: Antimycotic in-vitro activity, serial dilution test, overall comparison with known compounds; assay type: cell-based; details: compared with known compounds (A),(B),(C) and (D)
Method: as §1, §2

Candida-Zellen = assay: Antimycotic in-vivo activity (oral) in mouse candidosis; parameters: species or system Mäuse vom Typ SPF-CF1; key: +++++: sehr gute Wirkung = 90 % Ueberlebende am 6.Tag p.i.; ++++: gute Wirkung = 80 % Ueberlebende am 6.Tag p.i.; +++: Wirkung = 60 % Ueberlebende am 6.Tag p.i.; ++: schwache Wirkung = 40 % Ueberlebende am 6.Tag p.i.; +: Spur Wirkung; k.W.: keine Wirkung
Method: Mäuse vom Typ SPF-CF1 wurden intravenös mit 1 - 2 x 10^6 logarithmisch wachsenden Candida-Zellen, die in physiologischer Kochsalzlösung suspendiert werden, infiziert. Eine Stunde vor und sieben Stunden nach der Infektion werden die Tiere mit jeweils 50 - 100 mg/kg Körpergewicht der Präparate oral behandelt.
Uhbehandelte Tiere starben 3 bis 6 Tage post infektionem. Die Ueberlebensrate am 6.Tag post infektionem betrug bei uhbehandelten Kontrolltieren etwa 5 %.
• +++++ = sehr gute Wirkung = 90 % Ueberlebende am 6.Tag p.i. • ++++ = gute Wirkung = 80 % Ueberlebende am 6.Tag p.i. • +++ = Wirkung = 60 % Ueberlebende am 6.Tag p.i. • ++ = schwache Wirkung = 40 % Ueberlebende am 6.Tag p.i. • + = Spur Wirkung = k.W. = keine Wirkung

[3] = mice infected i.v. with 1 - 2 x 10^6 Candida cells, oral 50 - 100 mg/kg one hour before and seven hours after infection, survivors on day 6 p.i.
[4] = mouse candidosis, oral, compared with known compounds (A), (B), (C) and (D)

Row | Structure (SMILES) | MIC (Trichophyton mentagr.) | Wirkungen [1] | Wirkung [1] | MIC (Aspergillus fumig.) | MHK-Werte in γ/ml Nährmedium, Microsporum canis (Microsporum canis) | MHK-Werte in γ/ml Nährmedium, Torulopsis glabrata (Torulopsis glabrata) | MHK-Werte in γ/ml Nährmedium, Candida albicans (Candida albicans) | antimykotische Wirkung [2] | Wirkung (Candida-Zellen; [3]) | Wirkung (Candida-Zellen; [4]) | MHK-Werte in γ/ml Nährmedium, Trichophyton mentagr. (Trichophyton mentagr.) | MHK-Werte in γ/ml Nährmedium, Aspergillus fumig. (Aspergillus fumig.; 96 hours) | MIC (Microsporum canis) | MIC (Torulopsis glabrata) | MIC (Candida albicans)
1 | CCC(C(O)c1ccc(Oc2ccc(Cl)cc2)cc1)n1cncn1 (single isomer, unassigned) [Beispiel 29] | < 1 µg/mL | bestimmte Wirkungen | +++ | 32 µg/mL (≈ 93.1 µM) | 8 µg/mL | 8 µg/mL | 8 µg/mL | bessere antimykotische Wirkung | +++++ (sehr gute Wirkung = 90 % Ueberlebende am 6.Tag p.i.) | bessere Wirkung |  |  |  |  | 
2 | CCC(C(O)c1ccc(Oc2ccc(Cl)cc2)cc1)n1cncn1 (single isomer, unassigned) [Beispiel 30] |  | bestimmte Wirkungen | ++ |  | 32 µg/mL | <1 µg/mL | <1 µg/mL | bessere antimykotische Wirkung | +++ (Wirkung = 60 % Ueberlebende am 6.Tag p.i.) | bessere Wirkung | <1 µg/mL | >64 µg/mL |  |  | 
3 | CCCC(C(O)c1ccc(Oc2ccc(Cl)cc2)cc1)n1cncn1 (single isomer, unassigned) [Beispiel 32] |  | bestimmte Wirkungen | +++ |  |  |  |  |  | +++++ (sehr gute Wirkung = 90 % Ueberlebende am 6.Tag p.i.) | bessere Wirkung |  |  |  |  | 
4 | CCCC(C(=O)c1ccc(Oc2ccc(Cl)cc2)cc1)n1cncn1 (stereo not drawn) [Beispiel 6] |  | bestimmte Wirkungen | ++++ |  |  |  |  |  | +++ (Wirkung = 60 % Ueberlebende am 6.Tag p.i.) | bessere Wirkung |  |  |  |  | 
5 | CCC(C(=O)c1ccc(Oc2ccc(Cl)cc2)cc1)n1ccnc1 (stereo not drawn) [Beispiel 24] | 4 µg/mL (≈ 11.7 µM) | bestimmte Wirkungen | +++ | 8 µg/mL (≈ 23.5 µM) |  |  |  | bessere antimykotische Wirkung | +++ (Wirkung = 60 % Ueberlebende am 6.Tag p.i.) | bessere Wirkung |  |  | 4 µg/mL (≈ 11.7 µM) | 8 µg/mL (≈ 23.5 µM) | 4 µg/mL (≈ 11.7 µM)
6 | CC(C(O)c1ccc(Oc2ccc(Cl)cc2)cc1)n1cncn1 (stereo not drawn) [Beispiel 35] | < 1 µg/mL | bestimmte Wirkungen | +++ | 32 µg/mL (≈ 97 µM) |  |  |  | bessere antimykotische Wirkung | +++ (Wirkung = 60 % Ueberlebende am 6.Tag p.i.) | bessere Wirkung |  |  | 8 µg/mL (≈ 24.3 µM) | 2 µg/mL (≈ 6.06 µM) | < 1 µg/mL
7 | CCCC(n1cncn1)C(C)(O)c1ccc(Oc2ccc(Cl)cc2)cc1 (stereo not drawn) [Beispiel 43] | < 1 µg/mL | bestimmte Wirkungen | +++ | > 64 µg/mL |  |  |  | bessere antimykotische Wirkung | +++++ (sehr gute Wirkung = 90 % Ueberlebende am 6.Tag p.i.) | bessere Wirkung |  |  | 16 µg/mL (≈ 43 µM) | 4 µg/mL (≈ 10.8 µM) | < 1 µg/mL
8 | CC(n1cncn1)C(O)(Cc1ccc(Cl)cc1)c1ccc(Oc2ccc(Cl)cc2)cc1 (stereo not drawn) [Beispiel 45] | 2 µg/mL (≈ 4.4 µM) | bestimmte Wirkungen | + | > 64 µg/mL |  |  |  | bessere antimykotische Wirkung | + | bessere Wirkung |  |  | 32 µg/mL (≈ 70.4 µM) | < 1 µg/mL | < 1 µg/mL
9 | C=CCC(O)(c1ccc(Oc2ccc(Cl)cc2)cc1)C(CCC)n1cncn1 (stereo not drawn) [Beispiel 46] | < 1 µg/mL |  | + | 32 µg/mL (≈ 80.4 µM) |  |  |  | bessere antimykotische Wirkung | ++++ (gute Wirkung = 80 % Ueberlebende am 6.Tag p.i.) | bessere Wirkung |  |  | 8 µg/mL (≈ 20.1 µM) | 8 µg/mL (≈ 20.1 µM) | < 1 µg/mL
10 | Cc1cccc(Cl)c1Oc1ccc(C(O)Cn2cncn2)cc1 (stereo not drawn) [Beispiel 47] | < 1 µg/mL | bestimmte Wirkungen | ++++ | 8 µg/mL (≈ 24.3 µM) |  |  |  | bessere antimykotische Wirkung | ++++ (gute Wirkung = 80 % Ueberlebende am 6.Tag p.i.) | bessere Wirkung |  |  | 8 µg/mL (≈ 24.3 µM) | < 1 µg/mL | < 1 µg/mL
